Assay results from patent publication US7611729B2, “Dosage forms having prolonged active ingredient release” (Lunamed AG, priority 2001, dated 2009).

Test system: adenocarcinoma of the prostate
Assay: Human test results: oral treatment of prostate cancer patients with slow release tablets
Format: in vivo
Details: general statement
Method: Diseases that can be beneficially influenced by the present dosage form include in particular benign prostate hyperplasy, cancer, leukemias, cystic fibrosis, AIDS, kidney and liver diseases, thalassemia and urea cycle disorders. For example, the treatment of an adenocarcinoma of the prostate can be carried out by administering twice daily, e.g. in the morning and evening, a pharmaceutical tablet formulation containing 250 mg of sodium 4-phenylbutyrate. […] Treatment may be continued for several month or years until a satisfactory effect is observed or the patient is total free of the disease.
Following are descriptions of treatments and test results obtained from human patients.
This patient presented on Apr. […] Because of progressive bone pains they underwent bilateral orchiectomy in February 1996. They became free of pain until November 1998 when they again suffered bone pains mainly in their back. They were than treated orally twice daily with 250 mg of sodium phenylbutyrate retard tablets according to Example 1. Four weeks later they were free of pain.
This patient presented in March 1997 with a pathological fracture of the 8th thoracic vertebra caused by metastatic destruction. The multiple biopsies of the slightly enlarged prostate was positive for adenocarcinoma on both sides. […] On Apr. 10, 1997 they underwent bilateral orchidectomy. […]

O=C([O-])CCCc1ccccc1.[Na+] [sodium 4-phenylbutyrate]
therapeutic effect (pains) (adenocarcinoma of the prostate, tablet with 250 mg twice daily, after treatment of about one month): pains disappear
side effects (long period of treatment): no side effects
